For 2 compounds, % of control, Kd and Ki results are on record in ChEMBL document CHEMBL5212743, “Selectivity Literature for EUbOPEN Chemogenomics Library wave 3” (2023).

The Kd is the equilibrium constant for the complex coming apart. A higher Kd goes with weaker binding. As usually defined, the Ki is a measure of affinity in units of concentration, obtained from inhibition or displacement. The low end stands for a stronger hold on the target, the high end for a looser hold on the target.

Some results are limits rather than exact numbers.

Assay [1] concerns the target T1, STE20-like serine/threonine-protein kinase (Homo sapiens, UniProt Q9H2G2). The experiment in a line: Selectivity interaction (ScanMAX (DiscoverX)) EUB0000232b SLK. The conditions noted are these: at 1 µM.
Target sequence in this assay (Q9H2G2 whole entry, looked up): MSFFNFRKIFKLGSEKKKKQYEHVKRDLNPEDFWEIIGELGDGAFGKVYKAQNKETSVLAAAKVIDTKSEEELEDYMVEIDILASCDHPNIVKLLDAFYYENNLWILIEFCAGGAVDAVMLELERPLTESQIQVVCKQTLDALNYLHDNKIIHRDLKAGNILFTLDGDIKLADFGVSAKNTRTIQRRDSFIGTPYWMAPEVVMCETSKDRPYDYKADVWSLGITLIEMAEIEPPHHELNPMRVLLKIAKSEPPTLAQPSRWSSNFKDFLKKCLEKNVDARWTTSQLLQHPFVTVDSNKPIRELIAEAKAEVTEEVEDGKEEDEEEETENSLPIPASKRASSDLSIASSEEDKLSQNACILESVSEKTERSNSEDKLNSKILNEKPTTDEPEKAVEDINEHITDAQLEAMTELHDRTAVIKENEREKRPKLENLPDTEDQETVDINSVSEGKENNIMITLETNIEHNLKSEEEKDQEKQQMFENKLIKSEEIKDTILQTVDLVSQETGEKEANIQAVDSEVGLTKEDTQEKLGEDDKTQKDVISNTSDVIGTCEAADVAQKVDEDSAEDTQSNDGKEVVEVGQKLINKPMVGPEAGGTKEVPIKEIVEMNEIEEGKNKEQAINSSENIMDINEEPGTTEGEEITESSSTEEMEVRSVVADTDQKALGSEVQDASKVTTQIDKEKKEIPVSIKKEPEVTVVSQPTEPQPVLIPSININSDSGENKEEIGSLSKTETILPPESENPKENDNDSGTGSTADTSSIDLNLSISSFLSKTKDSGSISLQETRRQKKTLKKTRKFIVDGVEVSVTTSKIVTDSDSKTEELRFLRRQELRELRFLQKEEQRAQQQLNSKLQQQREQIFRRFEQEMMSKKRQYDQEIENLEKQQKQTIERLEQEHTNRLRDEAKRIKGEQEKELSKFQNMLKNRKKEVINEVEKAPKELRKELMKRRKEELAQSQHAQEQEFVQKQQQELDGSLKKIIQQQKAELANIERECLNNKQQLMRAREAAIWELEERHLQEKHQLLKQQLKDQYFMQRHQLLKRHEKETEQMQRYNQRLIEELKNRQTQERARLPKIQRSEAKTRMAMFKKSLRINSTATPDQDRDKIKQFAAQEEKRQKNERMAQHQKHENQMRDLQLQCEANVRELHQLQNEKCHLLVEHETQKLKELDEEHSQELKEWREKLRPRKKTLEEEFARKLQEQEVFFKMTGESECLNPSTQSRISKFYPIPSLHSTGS
For assay [2], the target named is T2, Epidermal growth factor receptor (Homo sapiens, UniProt P00533). The assay can be described thus: Selectivity interaction (ScanMAX (DiscoverX, competition-binding assay)) EUB0000232b EGFR.
In assay [3] the target is T3, Tyrosine-protein kinase SYK (Homo sapiens, UniProt P43405). The assay can be described thus: Selectivity interaction (ScanMAX (DiscoverX)) EUB0000232b SYK. The conditions noted are these: at 1 µM.
For assay [4], the target named is T1, STE20-like serine/threonine-protein kinase. The assay can be described thus: Selectivity interaction (ScanMAX (DiscoverX, competition-binding assay)) EUB0000232b SLK.
Target sequence in this assay (Q9H2G2 whole entry): as the sequence (Q9H2G2 whole entry, looked up) above
Assay [5] deals with T4, Tyrosine-protein kinase Lck (Homo sapiens, UniProt P06239). The experiment in a line: Selectivity interaction (ScanMAX (DiscoverX, competition-binding assay)) EUB0000232b LCK.
In assay [6] the target is T3, Tyrosine-protein kinase SYK. The experiment in a line: Selectivity interaction (ScanMAX (DiscoverX, competition-binding assay)) EUB0000232b SYK.
The target of assay [7] is T2, Epidermal growth factor receptor. The assay can be described thus: (§1) Selectivity interaction (ScanMAX (DiscoverX)) EUB0000232b EGFR. The conditions noted are these: at 1 µM.
For assay [8], the system named is Epidermal growth factor receptor (Homo sapiens), P00533 [L858R]. The description is as §1. Conditions: at 1 µM.
Assay [9] concerns the target T2, Epidermal growth factor receptor. The description is as §1. The conditions noted are these: at 1 µM. This is another data set of the same source.
The target of assay [10] is T4, Tyrosine-protein kinase Lck. The experiment in a line: Selectivity interaction (ScanMAX (DiscoverX)) EUB0000232b LCK. The conditions noted are these: at 1 µM.
Target sequence in this assay (P06239 2-509 limits assumed): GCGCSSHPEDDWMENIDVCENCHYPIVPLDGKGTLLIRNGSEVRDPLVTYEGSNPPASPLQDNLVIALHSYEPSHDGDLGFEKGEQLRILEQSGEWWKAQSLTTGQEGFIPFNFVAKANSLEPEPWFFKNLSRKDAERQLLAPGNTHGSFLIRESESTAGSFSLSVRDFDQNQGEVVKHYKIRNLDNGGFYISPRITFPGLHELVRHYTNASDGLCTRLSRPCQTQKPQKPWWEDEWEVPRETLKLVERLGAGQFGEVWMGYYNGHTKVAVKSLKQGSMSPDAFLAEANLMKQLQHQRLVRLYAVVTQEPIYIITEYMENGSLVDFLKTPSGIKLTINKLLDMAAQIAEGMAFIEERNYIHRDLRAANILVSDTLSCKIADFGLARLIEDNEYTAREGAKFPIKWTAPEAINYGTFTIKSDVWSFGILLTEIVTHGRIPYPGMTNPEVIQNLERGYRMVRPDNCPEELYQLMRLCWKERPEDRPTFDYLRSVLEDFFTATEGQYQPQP
Assay [11] concerns the target Alpha-2A adrenergic receptor (Homo sapiens, UniProt P08913). The assay can be described thus: Selectivity interaction (GPCR panel (PDSP screen)) EUB0000327a ADRA2A.
In assay [12] the target is Sodium-dependent dopamine transporter (Homo sapiens, UniProt Q01959). The experiment in a line: Selectivity interaction (GPCR panel (PDSP screen)) EUB0000327a SLC6A3.
Sequence of Sodium-dependent dopamine transporter (Q01959 whole entry): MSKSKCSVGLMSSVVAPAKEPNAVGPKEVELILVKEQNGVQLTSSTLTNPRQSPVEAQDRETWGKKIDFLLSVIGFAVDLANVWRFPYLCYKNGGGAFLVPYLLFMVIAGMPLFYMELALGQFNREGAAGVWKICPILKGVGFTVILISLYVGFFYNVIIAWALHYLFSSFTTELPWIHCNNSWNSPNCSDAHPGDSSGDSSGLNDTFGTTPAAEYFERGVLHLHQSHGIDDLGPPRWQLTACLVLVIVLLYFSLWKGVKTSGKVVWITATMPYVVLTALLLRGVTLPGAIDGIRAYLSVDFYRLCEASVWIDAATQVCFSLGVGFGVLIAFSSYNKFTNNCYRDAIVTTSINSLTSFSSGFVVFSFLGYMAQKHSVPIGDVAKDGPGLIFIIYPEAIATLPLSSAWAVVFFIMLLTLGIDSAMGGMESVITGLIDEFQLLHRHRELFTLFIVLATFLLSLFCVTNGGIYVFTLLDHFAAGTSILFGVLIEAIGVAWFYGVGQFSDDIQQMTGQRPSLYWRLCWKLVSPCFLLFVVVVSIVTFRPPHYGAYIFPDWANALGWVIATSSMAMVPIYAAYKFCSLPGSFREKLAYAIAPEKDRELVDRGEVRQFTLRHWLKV

T2 sequence (P00533 whole entry): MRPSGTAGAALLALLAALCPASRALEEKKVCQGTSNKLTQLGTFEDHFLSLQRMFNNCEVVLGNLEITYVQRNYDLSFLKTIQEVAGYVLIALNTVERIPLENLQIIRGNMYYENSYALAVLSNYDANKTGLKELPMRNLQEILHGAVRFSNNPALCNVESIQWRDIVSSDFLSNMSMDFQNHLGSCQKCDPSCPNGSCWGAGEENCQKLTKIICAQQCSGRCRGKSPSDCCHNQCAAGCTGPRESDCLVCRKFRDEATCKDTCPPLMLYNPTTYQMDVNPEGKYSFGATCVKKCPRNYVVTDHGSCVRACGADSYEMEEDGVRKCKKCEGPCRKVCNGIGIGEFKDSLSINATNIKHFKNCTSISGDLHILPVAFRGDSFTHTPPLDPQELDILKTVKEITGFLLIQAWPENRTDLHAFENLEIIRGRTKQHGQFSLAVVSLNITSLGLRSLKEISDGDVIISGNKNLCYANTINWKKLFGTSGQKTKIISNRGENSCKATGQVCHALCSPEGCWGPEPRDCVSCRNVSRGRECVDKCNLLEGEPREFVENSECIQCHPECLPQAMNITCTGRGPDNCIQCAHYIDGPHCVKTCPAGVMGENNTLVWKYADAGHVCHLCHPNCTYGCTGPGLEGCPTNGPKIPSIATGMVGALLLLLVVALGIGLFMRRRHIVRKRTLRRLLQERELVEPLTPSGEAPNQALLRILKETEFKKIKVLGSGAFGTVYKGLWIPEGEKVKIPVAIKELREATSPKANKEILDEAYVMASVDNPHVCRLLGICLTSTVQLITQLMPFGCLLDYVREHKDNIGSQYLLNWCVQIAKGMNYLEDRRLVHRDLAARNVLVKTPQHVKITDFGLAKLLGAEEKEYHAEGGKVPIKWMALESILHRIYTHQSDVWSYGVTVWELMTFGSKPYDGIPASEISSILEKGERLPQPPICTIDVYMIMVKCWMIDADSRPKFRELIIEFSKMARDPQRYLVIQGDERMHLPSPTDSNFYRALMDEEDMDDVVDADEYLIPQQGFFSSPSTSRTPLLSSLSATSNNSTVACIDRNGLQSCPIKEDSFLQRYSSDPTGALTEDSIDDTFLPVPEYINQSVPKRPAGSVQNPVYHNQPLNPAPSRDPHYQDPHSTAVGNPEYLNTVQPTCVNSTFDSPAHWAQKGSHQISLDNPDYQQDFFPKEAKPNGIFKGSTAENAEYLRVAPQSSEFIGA
Sequence of Epidermal growth factor receptor (Homo sapiens), P00533 [L858R] (P00533 whole entry L858R): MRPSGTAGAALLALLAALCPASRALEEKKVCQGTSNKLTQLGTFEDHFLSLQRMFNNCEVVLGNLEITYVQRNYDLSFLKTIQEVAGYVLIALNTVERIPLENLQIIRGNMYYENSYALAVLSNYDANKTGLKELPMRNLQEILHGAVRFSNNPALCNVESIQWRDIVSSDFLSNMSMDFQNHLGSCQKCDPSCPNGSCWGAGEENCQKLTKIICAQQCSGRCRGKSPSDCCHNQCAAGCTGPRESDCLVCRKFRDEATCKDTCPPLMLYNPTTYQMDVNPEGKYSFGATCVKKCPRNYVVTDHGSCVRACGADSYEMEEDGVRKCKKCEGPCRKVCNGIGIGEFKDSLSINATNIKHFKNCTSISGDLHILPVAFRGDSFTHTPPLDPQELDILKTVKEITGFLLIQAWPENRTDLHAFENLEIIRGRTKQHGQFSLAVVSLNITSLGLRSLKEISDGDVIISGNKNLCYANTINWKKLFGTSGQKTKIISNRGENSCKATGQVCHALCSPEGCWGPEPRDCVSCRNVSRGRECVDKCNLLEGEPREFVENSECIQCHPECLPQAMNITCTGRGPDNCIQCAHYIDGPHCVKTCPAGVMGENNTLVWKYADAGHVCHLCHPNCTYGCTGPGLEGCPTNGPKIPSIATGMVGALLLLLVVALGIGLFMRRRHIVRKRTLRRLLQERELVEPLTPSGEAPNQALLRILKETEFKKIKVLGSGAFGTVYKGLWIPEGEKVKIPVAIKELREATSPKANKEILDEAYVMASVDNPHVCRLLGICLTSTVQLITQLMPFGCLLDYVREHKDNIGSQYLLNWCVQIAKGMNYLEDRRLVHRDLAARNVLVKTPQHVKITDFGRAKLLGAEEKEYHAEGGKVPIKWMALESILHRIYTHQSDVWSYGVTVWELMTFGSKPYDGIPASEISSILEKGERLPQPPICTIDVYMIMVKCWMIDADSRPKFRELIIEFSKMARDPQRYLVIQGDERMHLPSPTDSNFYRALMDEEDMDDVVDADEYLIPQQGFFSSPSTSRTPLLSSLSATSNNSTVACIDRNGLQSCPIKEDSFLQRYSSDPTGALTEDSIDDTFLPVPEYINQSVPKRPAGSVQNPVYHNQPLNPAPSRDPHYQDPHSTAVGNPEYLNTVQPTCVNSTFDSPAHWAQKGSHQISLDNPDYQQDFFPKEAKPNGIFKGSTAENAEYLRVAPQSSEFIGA

For the compound `CCCCN(Cc1ccccc1)C(=O)c1ccc(S(=O)(=O)Nc2ccccc2)cc1`, the % of control in assay [1] came to 0%; in assay [3], 1.7%; in assay [7], 0%; in assay [8], 0%; in [9], 4.9%; in [10], 0%. Moreover, the dissociation constant Kd in assay [2], in assay [4], in assay [5] and in [6] was over 10 µM each time.
Consider `O=C(NNS(=O)(=O)c1ccccc1)c1cc(-c2ccnnc2)ccc1F` [WM-2474], for which the Ki in assay [11] and in [12] was over 10 µM each time.
